Test results: patent US12502434B2, “Compound comprising EZH2 inhibitor and E3 ligase binder and pharmaceutical composition for preventing or treating EZH2-associated disease comprising same as active ingredient” (DAEGU-GYEONGBUK MEDICAL INNOVATION FOUNDATION, priority 2019, dated 2025)
Read-outs that look alike come from different tables or passages of the source.

Experiments:
[1] = target: T1, EZH2 protein in LS174T cells (Homo sapiens, UniProt Q15910); test: Proteolytic effect in colorectal cancer cells (Western blotting); type: cell-based
T1 construct: endogenous in cells; host or cells: LS174T
T1 sequence (Q15910 whole entry): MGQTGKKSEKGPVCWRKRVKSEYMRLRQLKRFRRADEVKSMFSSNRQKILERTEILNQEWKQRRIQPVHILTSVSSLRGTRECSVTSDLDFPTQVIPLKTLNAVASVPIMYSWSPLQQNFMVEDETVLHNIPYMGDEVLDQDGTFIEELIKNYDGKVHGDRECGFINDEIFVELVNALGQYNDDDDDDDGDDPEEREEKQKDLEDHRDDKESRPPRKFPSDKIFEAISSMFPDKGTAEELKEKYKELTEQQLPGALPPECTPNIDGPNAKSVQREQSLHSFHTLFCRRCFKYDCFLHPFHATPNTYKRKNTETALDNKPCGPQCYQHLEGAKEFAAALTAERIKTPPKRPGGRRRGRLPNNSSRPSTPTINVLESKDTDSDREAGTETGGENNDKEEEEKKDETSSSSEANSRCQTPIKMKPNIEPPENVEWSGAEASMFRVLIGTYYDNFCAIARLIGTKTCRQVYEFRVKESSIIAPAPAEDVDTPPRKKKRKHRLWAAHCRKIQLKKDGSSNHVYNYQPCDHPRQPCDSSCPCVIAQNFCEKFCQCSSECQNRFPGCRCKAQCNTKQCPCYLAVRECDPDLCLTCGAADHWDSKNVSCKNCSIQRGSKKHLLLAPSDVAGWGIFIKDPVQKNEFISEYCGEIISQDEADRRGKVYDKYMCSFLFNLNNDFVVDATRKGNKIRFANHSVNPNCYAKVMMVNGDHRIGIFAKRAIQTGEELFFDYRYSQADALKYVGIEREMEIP
T1 sequence (O75530 whole entry partner): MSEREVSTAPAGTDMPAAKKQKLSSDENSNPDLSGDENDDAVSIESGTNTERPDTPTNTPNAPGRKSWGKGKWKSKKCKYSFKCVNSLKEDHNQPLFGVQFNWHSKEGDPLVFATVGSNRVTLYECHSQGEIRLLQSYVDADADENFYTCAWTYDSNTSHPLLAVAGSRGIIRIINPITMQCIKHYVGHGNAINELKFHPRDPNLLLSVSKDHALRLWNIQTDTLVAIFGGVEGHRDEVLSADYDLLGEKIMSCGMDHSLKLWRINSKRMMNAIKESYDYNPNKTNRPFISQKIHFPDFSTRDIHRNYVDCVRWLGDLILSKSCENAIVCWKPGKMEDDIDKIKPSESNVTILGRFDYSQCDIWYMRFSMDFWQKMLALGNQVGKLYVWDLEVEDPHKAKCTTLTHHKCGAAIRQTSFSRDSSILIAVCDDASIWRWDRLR
T1 sequence (Q15022 whole entry partner): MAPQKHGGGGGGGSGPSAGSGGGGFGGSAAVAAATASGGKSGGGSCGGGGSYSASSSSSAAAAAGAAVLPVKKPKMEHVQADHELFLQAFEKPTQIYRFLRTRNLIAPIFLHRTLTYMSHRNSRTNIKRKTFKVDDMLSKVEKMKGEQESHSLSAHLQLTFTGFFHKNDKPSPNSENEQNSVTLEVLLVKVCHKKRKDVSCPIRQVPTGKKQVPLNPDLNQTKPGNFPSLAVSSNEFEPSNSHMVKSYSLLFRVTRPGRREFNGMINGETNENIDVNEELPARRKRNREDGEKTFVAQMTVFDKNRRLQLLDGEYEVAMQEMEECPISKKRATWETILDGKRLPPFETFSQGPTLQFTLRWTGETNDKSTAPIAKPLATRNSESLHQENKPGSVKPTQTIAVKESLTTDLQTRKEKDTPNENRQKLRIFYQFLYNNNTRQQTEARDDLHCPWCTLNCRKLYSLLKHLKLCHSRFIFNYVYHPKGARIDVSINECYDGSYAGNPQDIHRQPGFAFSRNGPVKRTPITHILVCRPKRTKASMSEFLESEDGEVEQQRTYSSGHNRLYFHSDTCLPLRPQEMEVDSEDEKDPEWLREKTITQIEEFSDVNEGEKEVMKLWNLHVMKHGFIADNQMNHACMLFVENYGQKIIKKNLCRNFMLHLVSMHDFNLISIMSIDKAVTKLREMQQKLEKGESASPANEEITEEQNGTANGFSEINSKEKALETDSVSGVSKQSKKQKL
Method: After 72 hours of the treatment, the cells were collected and lysed using RIPA buffer (50 mM Tris, pH 7.5, 150 mM NaCl, 1% Triton X-100, 0.1% SDS, […], 0.5% deoxycholate, and protease inhibitor cocktail), followed by sonication (30 sec on/30 sec off, 5 cycles) to prepare a cell lysate.

[2] = target: T2, HiBiT-EZH2 in EZH2-HiBiT HEK293T cells (Homo sapiens, UniProt Q15910); test: EZH2 proteolytic activity using Nano-BiT assay system; type: cell-based; conditions: for Relative EZH2 degradation rate, 1 μM(%) Average: 72 hours, n = 3
T2 construct: endogenous in cells; host or cells: HEK293T (CRISPR/Cas9 HiBiT knock-in at the EZH2 locus)
T2 sequence (Q15910 whole entry): as the sequence (Q15910 whole entry) above
T2 sequence (O75530 whole entry partner): as the sequence (O75530 whole entry partner) above
T2 sequence (Q15022 whole entry partner): as the sequence (Q15022 whole entry partner) above
Method: In order to evaluate the EZH2 proteolytic activity of the compound according to the present invention, the following experiment was performed. Specifically, the CRISPR/Cas9 technique was used to construct a stable cell line of HiBiT-EZH2. […] After harvesting the cells, the cell solution was prepared at a concentration of 1 cell/100 ul, and 100 ul of the cell solution was dispensed into each well of a 96-well plate and seeded so that a single cell could proliferate in each well. After proliferating the cells for 2-3 weeks, some of the proliferated cells from one cell were recovered and gDNA was extracted. To confirm that the HiBiT sequence was correctly inserted into the EZH2 target, deep sequencing was performed to select the cells containing the HiBiT sequence, and after further verification through Sanger sequencing, the final EZH2-HiBiT HEK293T cells were obtained. 1×10^3 of the obtained cells were placed in a 96-well white plate, and after 18 hours of stabilization, each well was treated with the example compound at a final concentration of 1 μM. The control group was treated with the same concentration of DMSO which was used as the solvent of the example compound. After 72 hours of the treatment, an assay was performed using Nano-Glo HiBiT Lytic Detection System ([…], Promega). After removing the medium, 100 μL of lysis buffer, 1 μL of LgBiT protein and 1 μL of substrate buffer were added to each well. Then, the plate was reacted in a shaking incubator at 700 rpm for 2 minutes, and then the mixture of each well was pipetted to mix well. Thereafter, the plate was reacted at room temperature for 10 minutes while light was blocked, and luminescence was measured.

[3] = EZH2 protein, LS174T cells, 1 μM, 72 hours
[4] = EZH2 protein, LS174T cells, 1 uM, 72 hours, Western blotting

Structure (SMILES): CCN(c1cc(-c2ccc(CN3CCN(CC(=O)N4CCC5(CCN(CCNc6cccc7c6C(=O)N(C6CCC(=O)NC6=O)C7=O)CC5)CC4)CC3)cc2)cc(C(=O)NCc2c(C)cc(C)[nH]c2=O)c1C)C1CCOCC1 (stereo not shown) [Example 30, N-((4,6-dimethyl-2-oxo-1,2-dihydropyridine-3-yl)methyl)-4′-((4-(2-(9-(2-((2-(2,6-dioxopiperidine-3-yl)-1,3-dioxoisoindoline-4-yl)amino)ethyl)-3,9-diazaspiro[5.5]undecane-3-yl)-2-oxoethyl)piperazine-1-yl)methyl)-5-(ethyl(tetrahydro-2H-pyran-4-yl)amino)-4-methyl-[1,1′-biphenyl]-3-carboxamide]
- Grade (percent value of the protein degradation when treated with 1 μM) [1, 3]: A (>75%)
- %, degradation at 1 uM [1, 4]: 95.65%
- EZH2 proteolytic effect by Western blotting (figure, in words) ([1]; FIGS. 1 to 5): confirming the EZH2 proteolytic effect
- effect of degrading EZH2 protein when treated to colorectal cancer cells (in words) ([1]; LS174T cells): excellent effects
- EZH2 proteolytic ability compared to comparative compounds 1, 2 and 3 (in words) ([2]; 1 μM): significantly better EZH2 proteolytic ability
- Relative EZH2 degradation rate, 1 μM(%) Average [2]: 50.7%

Structure (SMILES): CCN(c1cc(-c2ccc(CN3CCN(CC(=O)NCCCCCC(=O)N[C@H](C(=O)N4C[C@H](O)C[C@H]4C(=O)NCc4ccc(-c5scnc5C)cc4)C(C)(C)C)CC3)cc2)cc(C(=O)NCc2c(C)cc(C)[nH]c2=O)c1C)C1CCOCC1 [Example 41, (2S,4R)-1-((S)-2-(6-(2-(4-((3′-(((4,6-dimethyl-2-oxo-1,2-dihydropyridine-3-yl)methyl)carbamoyl)-5′-(ethyl(tetrahydro-2H-pyran-4-yl)amino)-4′-methyl-[1,1′-biphenyl]-4-yl)methyl)piperazine-1-yl)acetamido)hexanamido)-3,3-dimethylbutanoyl)-4-hydroxy-N-(4-(4-methylthiazole-5-yl)benzyl)pyrrolidine-2-carboxamide]
- Grade (percent value of the protein degradation when treated with 1 μM) [1, 3]: D (<25%)
- %, degradation at 1 uM [1, 4]: 8.36%

Structure (SMILES): CCN(c1cc(-c2ccc(CN3CCN(CC(=O)NCCCOCCCOCC(=O)N[C@H](C(=O)N4C[C@H](O)C[C@H]4C(=O)NCc4ccc(-c5scnc5C)cc4)C(C)(C)C)CC3)cc2)cc(C(=O)NCc2c(C)cc(C)[nH]c2=O)c1C)C1CCOCC1 [Example 42, (2S,4R)-1-((S)-2-(tert-butyl)-16-(4-((3′-(((4,6-dimethyl-2-oxo-1,2-dihydropyridine-3-yl)methyl)carbamoyl)-5′-(ethyl(tetrahydro-2H-pyran-4-yl)amino)-4′-methyl-[1,1′-biphenyl]-4-yl)methyl)piperazine-1-yl)-4,15-dioxo-6,10-dioxa-3,14-diazahexadecanoyl)-4-hydroxy-N-(4-(4-methylthiazole-5-yl)benzyl)pyrrolidine-2-carboxamide]
- %, degradation at 1 uM [1]: 0%
- Grade (percent value of the protein degradation when treated with 1 μM) [1]: D (key: A: >75%; B: 50-75%; C: 25-50%; D: <25%)

Structure (SMILES): CCN(c1cc(-c2ccc(CN3CCN(CC(=O)NCCCCCOCCCOCCC(=O)N[C@H](C(=O)N4C[C@H](O)C[C@H]4C(=O)NCc4ccc(-c5scnc5C)cc4)C(C)(C)C)CC3)cc2)cc(C(=O)NCc2c(C)cc(C)[nH]c2=O)c1C)C1CCOCC1 [Example 43, (2S,4R)-1-((S)-2-(tert-butyl)-19-(4-((3′-(((4,6-dimethyl-2-oxo-1,2-dihydropyridine-3-yl)methyl)carbamoyl)-5′-(ethyl(tetrahydro-2H-pyran-4-yl)amino)-4′-methyl-[1,1′-biphenyl]-4-yl)methyl)piperazine-1-yl)-4,18-dioxo-7,11-dioxa-3,17-diazanonadecanoyl)-4-hydroxy-N-(4-(4-methylthiazole-5-yl)benzyl)pyrrolidine-2-carboxamide]
- Grade (percent value of the protein degradation when treated with 1 μM) [1, 3]: B (50-75%)
- %, degradation at 1 uM [1, 4]: 67.12%

Structure (SMILES): CCN(c1cc(-c2ccc(CN3CCN(CC(=O)N4CCC5(CCN(CCCC(=O)N[C@H](C(=O)N6C[C@H](O)C[C@H]6C(=O)NCc6ccc(-c7scnc7C)cc6)C(C)(C)C)CC5)CC4)CC3)cc2)cc(C(=O)NCc2c(C)cc(C)[nH]c2=O)c1C)C1CCOCC1 [Example 45, (2S,4R)-1-((S)-2-(4-(9-(2-(4-((3′-(((4,6-dimethyl-2-oxo-1,2-dihydropyridine-3-yl)methyl)carbamoyl)-5′-(ethyl(tetrahydro-2H-pyran-4-yl)amino)-4′-methyl-[1,1′-biphenyl]-4-yl)methyl)piperazine-1-yl)acetyl)-3,9-diazaspiro[5.5]undecane-3-yl)butanamido)-3,3-dimethylbutanoyl)-4-hydroxy-N-(4-(4-methylthiazole-5-yl)benzyl)pyrrolidine-2-carboxamide]
- Grade (percent value of the protein degradation when treated with 1 μM) [1, 3]: A (>75%)
- %, degradation at 1 uM [1, 4]: 76.02%
- effect of degrading EZH2 protein when treated to colorectal cancer cells (in words) ([1]; LS174T cells): excellent effects

Structure (SMILES): CCN(c1cc(-c2ccc(CN3CCN(C(=O)c4cn(CCC(=O)N[C@H](C(=O)N5C[C@H](O)C[C@H]5C(=O)NCc5ccc(-c6scnc6C)cc5)C(C)(C)C)nn4)CC3)cc2)cc(C(=O)NCc2c(C)cc(C)[nH]c2=O)c1C)C1CCOCC1 [Example 47, (2S,4R)-1-((S)-2-(3-(4-(4-((3′-(((4,6-dimethyl-2-oxo-1,2-dihydropyridine-3-yl)methyl)carbamoyl)-5′-(ethyl(tetrahydro-2H-pyran-4-yl)amino)-4′-methyl-[1,1′-biphenyl]-4-yl)methyl)piperazine-1-carbonyl)-1H-1,2,3-triazole-1-yl)propanamido)-3,3-dimethylbutanoyl)-4-hydroxy-N-(4-(4-methylthiazole-5-yl)benzyl)pyrrolidine-2-carboxamide]
- Grade (percent value of the protein degradation when treated with 1 μM) [1, 3]: D (<25%)
- %, degradation at 1 uM [1, 4]: 0%

Structure (SMILES): CCN(c1cc(-c2ccc(CN3CCN(C(=O)c4cn(CCCCC(=O)N[C@H](C(=O)N5C[C@H](O)C[C@H]5C(=O)NCc5ccc(-c6scnc6C)cc5)C(C)(C)C)nn4)CC3)cc2)cc(C(=O)NCc2c(C)cc(C)[nH]c2=O)c1C)C1CCOCC1 [Example 48, (2S,4R)-1-((S)-2-(5-(4-(4-((3′-(((4,6-dimethyl-2-oxo-1,2-dihydropyridine-3-yl)methyl)carbamoyl)-5′-(ethyl(tetrahydro-2H-pyran-4-yl)amino)-4′-methyl-[1,1′-biphenyl]-4-yl)methyl)piperazine-1-carbonyl)-1H-1,2,3-triazole-1-yl)pentanamido)-3,3-dimethylbutanoyl)-4-hydroxy-N-(4-(4-methylthiazole-5-yl)benzyl)pyrrolidine-2-carboxamide]
- Grade (percent value of the protein degradation when treated with 1 μM) [1, 3]: D (<25%)
- %, degradation at 1 uM [1, 4]: 5.74%
- effect of degrading EZH2 protein when treated to colorectal cancer cells (in words) ([1]; LS174T cells): excellent effects

Structure (SMILES): CCN(c1cc(-c2ccc(CN3CCN(CC(=O)NCCCCCCNC(=O)[C@H](CC(C)C)NC(=O)[C@@H](O)[C@H](N)Cc4ccccc4)CC3)cc2)cc(C(=O)NCc2c(C)cc(C)[nH]c2=O)c1C)C1CCOCC1 [Example 50, 4′-((4-(2-((6-((S)-2-((2S,3R)-3-amino-2-hydroxy-4-phenylbutanamido)-4-methylpentanamido)hexyl)amino)-2-oxoethyl)piperazine-1-yl)methyl)-N-((4,6-dimethyl-2-oxo-1,2-dihydropyridine-3-yl)methyl)-5-(ethyl(tetrahydro-2H-pyran-4-yl)amino)-4-methyl-[1,1′-biphenyl]-3-carboxamide]
- %, degradation at 1 uM [1]: 0%
- Grade (percent value of the protein degradation when treated with 1 μM) [1]: D (key: A: >75%; B: 50-75%; C: 25-50%; D: <25%)

Structure (SMILES): CCN(c1cc(-c2ccc(OCC(=O)NCCCCCCNc3cccc4c3C(=O)N(C3CCC(=O)NC3=O)C4=O)cc2)cc(C(=O)NCc2c(C)cc(C)[nH]c2=O)c1C)C1CCOCC1 (stereo not shown) [compound 1, reference compound]
- Relative EZH2 degradation rate, 1 μM(%) Average [2]: 27.8%

Structure (SMILES): CCN(c1cc(-c2ccc(N3CCN(CC(=O)NCCCCCCNc4cccc5c4C(=O)N(C4CCC(=O)NC4=O)C5=O)CC3)cc2)cc(C(=O)NCc2c(C)cc(C)[nH]c2=O)c1C)C1CCOCC1 (stereo not shown) [compound 2, reference compound]
- Relative EZH2 degradation rate, 1 μM(%) Average [2]: 16.2%

Structure (SMILES): CCN(c1cc(-c2ccc(CN3CCN(CCNC(=O)CCOCCNc4cccc5c4C(=O)N(C4CCC(=O)NC4=O)C5=O)CC3)cc2)cc(C(=O)NCc2c(C)cc(C)[nH]c2=O)c1C)C1CCOCC1 (stereo not shown) [compound 3, reference compound]
- Relative EZH2 degradation rate, 1 μM(%) Average [2]: 19.2%
